Assay results published in ChEMBL document CHEMBL5620431, “2,4-Diaryl-pyrimido[1,2-a]benzimidazole derivatives as novel anticancer agents endowed with potent anti-leukemia activity: Synthesis, biological evaluation and kinase profiling” (Eur J Med Chem, 2023).

What was measured:
[1] = tested on: BaF3; assay: Antiproliferative activity against TEL-BMX transformed mouse BaF3 cells assessed as inhibition of cell proliferation
[2] = tested on: CCRF-CEM; assay: Antiproliferative activity against human CCRF-CEM cells assessed as cell growth inhibition incubated for 48 hrs by MTT assay; assay type: functional
[3] = molecular target: T1, Receptor-type tyrosine-protein kinase FLT3 (Homo sapiens, UniProt P36888); assay: Inhibition of FLT3 (unknown origin)
T1 sequence (P36888 whole entry): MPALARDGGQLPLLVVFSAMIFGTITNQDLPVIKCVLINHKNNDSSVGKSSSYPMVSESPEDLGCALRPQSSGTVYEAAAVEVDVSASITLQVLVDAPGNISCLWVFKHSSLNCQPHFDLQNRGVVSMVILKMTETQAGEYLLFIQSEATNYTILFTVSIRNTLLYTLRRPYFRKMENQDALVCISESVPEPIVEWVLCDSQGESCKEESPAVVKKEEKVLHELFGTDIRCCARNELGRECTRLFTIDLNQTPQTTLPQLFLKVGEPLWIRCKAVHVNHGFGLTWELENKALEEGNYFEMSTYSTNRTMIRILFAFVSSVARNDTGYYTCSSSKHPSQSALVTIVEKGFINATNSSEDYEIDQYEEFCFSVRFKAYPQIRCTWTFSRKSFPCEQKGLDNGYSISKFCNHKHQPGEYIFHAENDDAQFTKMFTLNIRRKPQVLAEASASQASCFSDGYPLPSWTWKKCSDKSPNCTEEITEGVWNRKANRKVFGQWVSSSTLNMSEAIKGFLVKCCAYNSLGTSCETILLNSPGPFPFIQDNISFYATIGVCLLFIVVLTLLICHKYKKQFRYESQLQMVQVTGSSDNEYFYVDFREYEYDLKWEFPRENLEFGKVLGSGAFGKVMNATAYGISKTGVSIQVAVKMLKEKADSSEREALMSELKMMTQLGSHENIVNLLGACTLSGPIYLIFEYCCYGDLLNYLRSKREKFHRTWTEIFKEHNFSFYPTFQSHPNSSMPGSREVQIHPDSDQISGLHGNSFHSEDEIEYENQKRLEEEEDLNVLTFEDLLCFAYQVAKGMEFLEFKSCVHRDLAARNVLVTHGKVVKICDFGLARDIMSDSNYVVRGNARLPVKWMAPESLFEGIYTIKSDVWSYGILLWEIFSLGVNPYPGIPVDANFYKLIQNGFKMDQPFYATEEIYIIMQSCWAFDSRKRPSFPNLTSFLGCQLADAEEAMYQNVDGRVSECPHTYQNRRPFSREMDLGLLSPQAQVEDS

SMILES | IC50 [3] [nM] | also measured
C=CC(=O)Nc1cc(-n2c(=O)ccc3cnc4ccc(-c5ccc(NS(C)(=O)=O)cc5)cc4c32)ccc1C | – | IC50 [1]: 25 nM
CCOC(=O)c1cnc2c(-c3nc4ccccc4s3)c(NC)nn2c1O | – | GI50 [2]: 16300 nM
Cc1cn(-c2cc(-c3nc4cc(NC(=O)c5cnoc5C)ccc4[nH]3)cc(C(F)(F)F)c2)cn1 | 495 | –
Cc1oncc1C(=O)Nc1ccc2[nH]c(-c3cc(N4CCOCC4)cc(C(F)(F)F)c3)nc2c1 | 495 | –

Continued by falling IC50 [3], values first:

IC50 [3] [nM] | SMILES | also measured
495 | Cc1oncc1C(=O)Nc1ccc2[nH]c(-c3cc(-n4cncc4C)cc(C(F)(F)F)c3)nc2c1 | –
495 | Cc1oncc1C(=O)Nc1ccc2[nH]c(-c3cnn(-c4ccccc4)c3C(F)(F)F)nc2c1 | –
495 | Cc1oncc1C(=O)Nc1ccc2[nH]c(-c3cc(-n4ccnc4C)cc(C(F)(F)F)c3)nc2c1 | –
